Measurements taken from ChEMBL document CHEMBL1201861, “Genomics of Drug Sensitity in Cancer screening data, Wellcome Trust Sanger Institute”.

Columns and labels:
Assay in all cases: cells
D-502MG = type: functional, cell-based, Homo sapiens; details: Homo sapiens, D-502MG
Description: SANGER: Inhibition of human D-502MG cell growth in a cell viability assay.

DEL = type: functional, cell-based, Homo sapiens; details: Homo sapiens, DEL;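 further: growth inhibition of the human DEL cell line, read out with a cell viability assay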
Description: SANGER: Inhibition of human DEL cell growth in a cell viability assay.

DMS-114 = type: functional, cell-based, Homo sapiens; details: Homo sapiens, DMS-114
DOHH-2 = type: functional, cell-based, Homo sapiens; details: Homo sapiens, DOHH-2;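 further: growth inhibition of human DOHH-2 cells, read out with a cell viability assay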
Description: SANGER: Inhibition of human DOHH-2 cell growth in a cell viability assay.

EM-2 = type: functional, cell-based, Homo sapiens; details: Homo sapiens, EM-2;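 further: growth inhibition of EM-2 cells, read out with a cell viability assay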
Description: SANGER: Inhibition of human EM-2 cell growth in a cell viability assay.

ES3 = type: functional, cell-based, Homo sapiens; details: Homo sapiens, ES3;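 further: growth inhibition of ES3 cells, read out with a cell viability assay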
Description: SANGER: Inhibition of human ES3 cell growth in a cell viability assay.

ETK-1 = type: functional, cell-based, Homo sapiens; details: Homo sapiens, ETK-1;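 further: growth inhibition of human ETK-1 cells, read out with a cell viability assay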
Description: SANGER: Inhibition of human ETK-1 cell growth in a cell viability assay.

EW-11 = type: functional, cell-based, Homo sapiens; details: Homo sapiens, EW-11;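 further: growth inhibition of human EW-11 cells, measured with a cell viability assay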
Description: SANGER: Inhibition of human EW-11 cell growth in a cell viability assay.

EW-13 = type: functional, cell-based, Homo sapiens; details: Homo sapiens, EW-13;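 further: growth inhibition of EW-13 cells, read out with a cell viability assay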
Description: SANGER: Inhibition of human EW-13 cell growth in a cell viability assay.

EW-3 = type: functional, cell-based, Homo sapiens; details: Homo sapiens, EW-3;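 further: cell viability assay read-out, IC50 reflects inhibition of growth of the EW-3 cells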
Description: SANGER: Inhibition of human EW-3 cell growth in a cell viability assay.

HCE-T = type: functional, cell-based, Homo sapiens; details: Homo sapiens, HCE-T;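 further: cell viability assay read-out, reporting inhibition of HCE-T cell growth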
Description: SANGER: Inhibition of human HCE-T cell growth in a cell viability assay.

HH = type: functional, cell-based, Homo sapiens; details: Homo sapiens, HH
Description: SANGER: Inhibition of human HH cell growth in a cell viability assay.

IST-SL1 = type: functional, cell-based, Homo sapiens; details: Homo sapiens, IST-SL1;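 further: growth inhibition of human IST-SL1 cells, read out with a cell viability assay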
Description: SANGER: Inhibition of human IST-SL1 cell growth in a cell viability assay.

JVM-2 = type: functional, cell-based, Homo sapiens; details: Homo sapiens, JVM-2;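 further: growth inhibition of JVM-2 cells determined by a cell viability assay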
Description: SANGER: Inhibition of human JVM-2 cell growth in a cell viability assay.

JVM-3 = type: functional, cell-based, Homo sapiens; details: Homo sapiens, JVM-3;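 further: growth inhibition of human JVM-3 cells, read out with a cell viability assay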
Description: SANGER: Inhibition of human JVM-3 cell growth in a cell viability assay.

K5 = type: functional, cell-based, Homo sapiens; details: Homo sapiens, K5
Description: SANGER: Inhibition of human K5 cell growth in a cell viability assay.

KALS-1 = type: functional, cell-based, Homo sapiens; details: Homo sapiens, KALS-1;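 further: growth inhibition of KALS-1 cells, determined with a cell viability assay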
Description: SANGER: Inhibition of human KALS-1 cell growth in a cell viability assay.

KARPAS-45 = type: functional, cell-based, Homo sapiens; details: Homo sapiens, KARPAS-45;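 further: inhibition of cell line growth, read out through a viability assay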
Description: SANGER: Inhibition of human KARPAS-45 cell growth in a cell viability assay.

KGN = type: functional, cell-based, Homo sapiens; details: Homo sapiens, KGN;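 further: growth inhibition of KGN cells, read out with a cell viability assay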
Description: SANGER: Inhibition of human KGN cell growth in a cell viability assay.

KNS-42 = type: functional, cell-based, Homo sapiens; details: Homo sapiens, KNS-42;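 further: growth inhibition of KNS-42 cells, read out with a cell viability assay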
Description: SANGER: Inhibition of human KNS-42 cell growth in a cell viability assay.

LAMA-84 = type: functional, cell-based, Homo sapiens; details: Homo sapiens, LAMA-84;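 further: growth inhibition of LAMA-84 cells, read out with a cell viability assay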
Description: SANGER: Inhibition of human LAMA-84 cell growth in a cell viability assay.

LB2518-MEL = type: functional, cell-based, Homo sapiens; details: Homo sapiens, LB2518-MEL;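 further: growth inhibition of human LB2518-MEL cells, measured with a cell viability assay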
Description: SANGER: Inhibition of human LB2518-MEL cell growth in a cell viability assay.

LB771-HNC = type: functional, cell-based, Homo sapiens; details: Homo sapiens, LB771-HNC;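 further: growth inhibition of LB771-HNC human cells, read out with a cell viability assay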
Description: SANGER: Inhibition of human LB771-HNC cell growth in a cell viability assay.

LB831-BLC = type: functional, cell-based, Homo sapiens; details: Homo sapiens, LB831-BLC;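 further: growth inhibition of LB831-BLC cells, read out with a cell viability assay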
Description: SANGER: Inhibition of human LB831-BLC cell growth in a cell viability assay.

LS-411N = type: functional, cell-based, Homo sapiens; details: Homo sapiens, LS-411N
LS-513 = type: functional, cell-based, Homo sapiens; details: Homo sapiens, LS-513
Description: SANGER: Inhibition of human LS-513 cell growth in a cell viability assay.

MFM-223 = type: functional, cell-based, Homo sapiens; details: Homo sapiens, MFM-223
Description: SANGER: Inhibition of human MFM-223 cell growth in a cell viability assay.

MN-60 = type: functional, cell-based, Homo sapiens; details: Homo sapiens, MN-60;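 further: growth inhibition of the MN-60 cell line, determined with a cell viability assay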
Description: SANGER: Inhibition of human MN-60 cell growth in a cell viability assay.

MS-1 = type: functional, cell-based, Homo sapiens; details: Homo sapiens, MS-1
Description: SANGER: Inhibition of human MS-1 cell growth in a cell viability assay.

MV4-11 = type: functional, cell-based, Homo sapiens, MV-4-11; details: Homo sapiens, MV4-11;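 further: cell viability readout measuring growth inhibition of human MV-4-11 cells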
Description: SANGER: Inhibition of human MV-4-11 cell growth in a cell viability assay.

NB17 = type: functional, cell-based, Homo sapiens; details: Homo sapiens, NB17;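 further: growth inhibition of NB17 cells, read out with a cell viability assay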
Description: SANGER: Inhibition of human NB17 cell growth in a cell viability assay.

NCI-H1355 = type: functional, cell-based, Homo sapiens; details: Homo sapiens, NCI-H1355;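 further: growth inhibition of human NCI-H1355 cells, read out by a cell viability assay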
Description: SANGER: Inhibition of human NCI-H1355 cell growth in a cell viability assay.

NCI-H526 = type: functional, cell-based, Homo sapiens; details: Homo sapiens, NCI-H526;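 further: growth inhibition of the human NCI-H526 cell line, measured by a cell viability assay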
Description: SANGER: Inhibition of human NCI-H526 cell growth in a cell viability assay.

NMC-G1 = type: functional, cell-based, Homo sapiens; details: Homo sapiens, NMC-G1;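 further: growth inhibition of the NMC-G1 cell line, measured with a cell viability read-out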
Description: SANGER: Inhibition of human NMC-G1 cell growth in a cell viability assay.

OMC-1 = type: functional, cell-based, Homo sapiens; details: Homo sapiens, OMC-1;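 further: growth inhibition of the OMC-1 cell line, measured by a cell viability assay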
Description: SANGER: Inhibition of human OMC-1 cell growth in a cell viability assay.

P30-OHK = type: functional, cell-based, Homo sapiens; details: Homo sapiens, P30-OHK;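 further: growth inhibition of the P30-OHK cell line, read out with a cell viability assay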
Description: SANGER: Inhibition of human P30-OHK cell growth in a cell viability assay.

RH-1 = type: functional, cell-based, Homo sapiens; details: Homo sapiens, RH-1;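 further: growth inhibition of human RH-1 cells, read out with a cell viability assay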
Description: SANGER: Inhibition of human RH-1 cell growth in a cell viability assay.

RPMI-8226 = type: functional, cell-based, Homo sapiens; details: Homo sapiens, RPMI-8226
Description: SANGER: Inhibition of human RPMI-8226 cell growth in a cell viability assay.

SH-4 = type: functional, cell-based, Homo sapiens; details: Homo sapiens, SH-4;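 further: growth inhibition of SH-4 cells, read out with a cell viability assay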
Description: SANGER: Inhibition of human SH-4 cell growth in a cell viability assay.

SK-N-DZ = type: functional, cell-based, Homo sapiens; details: Homo sapiens, SK-N-DZ;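 further: growth inhibition of the cancer cell line, read out through a viability assay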
Description: SANGER: Inhibition of human SK-N-DZ cell growth in a cell viability assay.

SK-NEP-1 = type: functional, cell-based, Homo sapiens; details: Homo sapiens, SK-NEP-1;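 further: growth inhibition of human SK-NEP-1 cells, read out by a cell viability assay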
Description: SANGER: Inhibition of human SK-NEP-1 cell growth in a cell viability assay.

SNU-C2B = type: functional, cell-based, Homo sapiens; details: Homo sapiens, SNU-C2B;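 further: cell viability readout used to measure compound-driven suppression of SNU-C2B cell proliferation, IC50 marking half-maximal growth inhibition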
Description: SANGER: Inhibition of human SNU-C2B cell growth in a cell viability assay.

ALL-PO = type: functional, cell-based, Homo sapiens; details: Homo sapiens, ALL-PO;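 further: growth inhibition of ALL-PO cells, read out by a cell viability assay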
Description: SANGER: Inhibition of human ALL-PO cell growth in a cell viability assay.

ATN-1 = type: functional, cell-based, Homo sapiens; details: Homo sapiens, ATN-1;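 further: growth inhibition of human ATN-1 cells, read out with a cell viability assay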
Description: SANGER: Inhibition of human ATN-1 cell growth in a cell viability assay.

BV-173 = type: functional, cell-based, Homo sapiens; details: Homo sapiens, BV-173
Description: SANGER: Inhibition of human BV-173 cell growth in a cell viability assay.

C2BBe1 = type: functional, cell-based, Homo sapiens; details: Homo sapiens, C2BBe1;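 further: growth inhibition of C2BBe1 cells, read out through a viability assay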
Description: SANGER: Inhibition of human C2BBe1 cell growth in a cell viability assay.

CAS-1 = type: functional, cell-based, Homo sapiens; details: Homo sapiens, CAS-1;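 further: growth inhibition of CAS-1 cells, measured with a cell viability assay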
Description: SANGER: Inhibition of human CAS-1 cell growth in a cell viability assay.

OCCCNc1cc(-c2ccnc(Nc3cccc(Cl)c3)n2)ccn1
IC50 (D-502MG): > 0.256 µM | IC50 (DEL): 0.0258 µM | IC50 (DMS-114): > 0.256 µM | IC50 (DOHH-2): 0.0408 µM | IC50 (EM-2): 0.176 µM | IC50 (ES3): > 0.256 µM | IC50 (ETK-1): 0.0138 µM | IC50 (EW-11): > 0.256 µM | IC50 (EW-13): > 0.256 µM | IC50 (EW-3): > 0.256 µM | IC50 (HCE-T): 0.0473 µM | IC50 (HH): 0.0706 µM | IC50 (IST-SL1): 0.147 µM | IC50 (JVM-2): > 0.256 µM | IC50 (JVM-3): > 0.256 µM | IC50 (K5): 0.0188 µM | IC50 (KALS-1): 0.0353 µM | IC50 (KARPAS-45): 0.104 µM | IC50 (KGN): 0.0105 µM | IC50 (KNS-42): 0.13 µM | IC50 (LAMA-84): 0.203 µM | IC50 (LB2518-MEL): > 0.256 µM | IC50 (LB771-HNC): 0.161 µM | IC50 (LB831-BLC): 0.0325 µM | IC50 (LS-411N): 0.0379 µM | IC50 (LS-513): > 0.256 µM | IC50 (MFM-223): > 0.256 µM | IC50 (MN-60): 0.149 µM | IC50 (MS-1): 0.196 µM | IC50 (MV4-11): 0.0431 µM | IC50 (NB17): 0.0887 µM | IC50 (NCI-H1355): 0.0249 µM | IC50 (NCI-H526): > 0.256 µM | IC50 (NMC-G1): 0.0323 µM | IC50 (OMC-1): 0.12 µM | IC50 (P30-OHK): > 0.256 µM | IC50 (RH-1): > 0.256 µM | IC50 (RPMI-8226): 0.129 µM | IC50 (SH-4): > 0.256 µM | IC50 (SK-N-DZ): > 0.256 µM | IC50 (SK-NEP-1): 0.0809 µM | IC50 (SNU-C2B): 0.104 µM | IC50 (ALL-PO): 0.08 µM | IC50 (ATN-1): 0.0542 µM | IC50 (BV-173): 0.144 µM | IC50 (C2BBe1): 0.154 µM | IC50 (CAS-1): > 0.256 µM

CC(=O)O[C@H]1C(=O)[C@@]2(C)[C@H]([C@H](OC(=O)c3ccccc3)[C@]3(O)C[C@H](OC(=O)[C@H](O)[C@@H](NC(=O)c4ccccc4)c4ccccc4)C(C)=C1C3(C)C)[C@]1(OC(C)=O)CO[C@@H]1C[C@@H]2O [PACLITAXEL]
IC50 (D-502MG): > 0.102 µM | IC50 (DEL): 0.00845 µM | IC50 (DMS-114): 0.025 µM | IC50 (DOHH-2): 0.012 µM | IC50 (EM-2): > 0.102 µM | IC50 (ES3): > 0.102 µM | IC50 (ETK-1): 0.00152 µM | IC50 (EW-11): > 0.102 µM | IC50 (EW-13): > 0.102 µM | IC50 (EW-3): > 0.102 µM | IC50 (HCE-T): 0.0209 µM | IC50 (HH): 0.0716 µM | IC50 (IST-SL1): 0.0304 µM | IC50 (JVM-2): > 0.102 µM | IC50 (JVM-3): > 0.102 µM | IC50 (K5): 0.0723 µM | IC50 (KALS-1): 0.00308 µM | IC50 (KARPAS-45): 0.0127 µM | IC50 (KGN): 0.00712 µM | IC50 (KNS-42): 0.00891 µM | IC50 (LAMA-84): > 0.102 µM | IC50 (LB2518-MEL): 0.0814 µM | IC50 (LB771-HNC): 0.0253 µM | IC50 (LB831-BLC): 0.0248 µM | IC50 (LS-411N): 0.00717 µM | IC50 (LS-513): > 0.102 µM | IC50 (MFM-223): > 0.102 µM | IC50 (MN-60): > 0.102 µM | IC50 (MS-1): > 0.102 µM | IC50 (MV4-11): 0.00475 µM | IC50 (NB17): 0.0498 µM | IC50 (NCI-H1355): 0.00914 µM | IC50 (NCI-H526): 0.0289 µM | IC50 (NMC-G1): 0.0345 µM | IC50 (OMC-1): > 0.102 µM | IC50 (P30-OHK): > 0.102 µM | IC50 (RH-1): 0.0382 µM | IC50 (RPMI-8226): 0.011 µM | IC50 (SH-4): 0.0189 µM | IC50 (SK-N-DZ): 0.0731 µM | IC50 (SK-NEP-1): 0.0864 µM | IC50 (SNU-C2B): 0.015 µM | IC50 (ALL-PO): 0.0063 µM | IC50 (ATN-1): 0.00609 µM | IC50 (BV-173): 0.0255 µM | IC50 (C2BBe1): > 0.102 µM | IC50 (CAS-1): > 0.102 µM
